± gives the standard deviation of the averaged measurements.
Assays:
Details in all cases: 72 h
U2OS [1] = assay: cell viability relative to DMSO; higher = less toxic
Calu-3 [2] = assay: as above
Caco-2 [3] = assay: as above
HepG2 [4] = assay: as above
Vero E6 [5] = assay: as above
U2OS [6] = assay: drug sensitivity score (DSS) for viability; higher = more toxic; extreme values may be limits of the assay
Calu-3 [7] = assay: as above
Caco-2 [8] = assay: as above
HepG2 [9] = assay: as above
Vero E6 [10] = assay: as above
U2OS [11] = assay: relative viability EC50 (midpoint between 100% and the lowest measured viability); higher = less toxic
Calu-3 [12] = assay: as above
Caco-2 [13] = assay: as above
HepG2 [14] = assay: as above
Vero E6 [15] = assay: as above

| SMILES | cell viability (U2OS [1]; 1 nM) | cell viability (U2OS [1]; 10 nM) | cell viability (U2OS [1]; 100 nM) | cell viability (U2OS [1]; 1000 nM) | cell viability (U2OS [1]; 10000 nM) | cell viability (Calu-3 [2]; 1 nM) | cell viability (Calu-3 [2]; 10 nM) | cell viability (Calu-3 [2]; 100 nM) | cell viability (Calu-3 [2]; 1000 nM) | cell viability (Calu-3 [2]; 10000 nM) | cell viability (Caco-2 [3]; 1 nM) | cell viability (Caco-2 [3]; 10 nM) | cell viability (Caco-2 [3]; 100 nM) | cell viability (Caco-2 [3]; 1000 nM) | cell viability (Caco-2 [3]; 10000 nM) | cell viability (HepG2 [4]; 1 nM) | cell viability (HepG2 [4]; 10 nM) | cell viability (HepG2 [4]; 100 nM) | cell viability (HepG2 [4]; 1000 nM) | cell viability (HepG2 [4]; 10000 nM) | cell viability (Vero E6 [5]; 1 nM) | cell viability (Vero E6 [5]; 10 nM) | cell viability (Vero E6 [5]; 100 nM) | cell viability (Vero E6 [5]; 1000 nM) | cell viability (Vero E6 [5]; 10000 nM) | drug sensitivity score (U2OS [6]) | drug sensitivity score (Calu-3 [7]) | drug sensitivity score (Caco-2 [8]) | drug sensitivity score (HepG2 [9]) | drug sensitivity score (Vero E6 [10]) | relative viability EC50 (U2OS [11]) | relative viability EC50 (Calu-3 [12]) | relative viability EC50 (Caco-2 [13]) | relative viability EC50 (HepG2 [14]) | relative viability EC50 (Vero E6 [15]) |
| --- | --- | --- | --- | --- | --- | --- | --- | --- | --- | --- | --- | --- | --- | --- | --- | --- | --- | --- | --- | --- | --- | --- | --- | --- | --- | --- | --- | --- | --- | --- | --- | --- | --- | --- | --- |
| CCCN[C@@H]1CCc2c(OC)cccc2[C@@H]1C [AJ76-(+)] | 102% | 105% | 95.7% | 95.9% | 98.8% | 100% | 95.9% | 96.8% | 96% | 114% | 104% | 97.8% | 96.4% | 86.8% | 96.7% | 88.5% | 100% | 103% | 103% | 94% | 97.8% | 104% | 96.6% | 99.6% | 91.3% | 0 | 0 | 0 | 0 | 0 | > 10 µM | > 10 µM | > 10 µM | > 10 µM | > 10 µM |
| CCOc1ccc(S(=O)(=O)O)c2cccnc12 [actinoquinol] | 96.3% | 98.1% | 94% | 94.6% | 95.5% | 99.4% | 99.4% | 99% | 99.8% | 99.1% | 91.1% | 78% | 87.3% | 102% | 95.1% | 91% | 101% | 95.1% | 98.5% | 110% | 95.4% | 90.2% | 92.5% | 95.1% | 101% | 0 | 0 | 0 | 0 | 0 | > 10 µM | > 10 µM | > 10 µM | > 10 µM | > 10 µM |
| COc1cc2c(cc1OC)[C@H](C)NCC2 [Isoquinoline,-6,7-dimethoxy-1-methyl-1,2,3,4-tetrahydro,] | 102% | 103% | 104% | 90.4% | 102% | 109% | 104% | 101% | 109% | 96.1% | 92.5% | 89.1% | 99.4% | 92.3% | 112% | 100% | 95.6% | 99.9% | 97.4% | 101% | 97.3% | 96.5% | 96.8% | 96.5% | 106% | 0 | 0 | 0 | 0 | 0 | > 10 µM | > 10 µM | > 10 µM | > 10 µM | > 10 µM |
| O=C(CSc1nc2c(c(=O)n1-c1ccccc1)SCC2)Nc1ccc(-c2ccccc2)cn1 [IWP-L6] | 95.4% | 97.6% | 93.4% | 97.1% | 94.9% | 94.4% | 96.6% | 91.7% | 98.8% | 87.5% | 89.2% | 102% | 96.2% | 92.6% | 90.1% | 100% | 92.1% | 105% | 106% | 99.3% | 97% | 97.7% | 95.3% | 95.1% | 96.1% | 0 | 0 | 0 | 0 | 0 | > 10 µM | > 10 µM | > 10 µM | > 10 µM | > 10 µM |
| CC1=C(C(=O)O)N2C(=O)[C@@H](NC(=O)[C@H](N)c3ccccc3)[C@H]2SC1 [cephalexin] | 99.2% | 91.5% | 99.1% | 94.7% | 104% | 94.8% | 101% | 88.4% | 112% | 94.9% | 95.2% | 94.6% | 100% | 98% | 115% | 101% | 97.1% | 92.7% | 95.2% | 105% | 95.8% | 100% | 96.7% | 101% | 103% | 0 | 0 | 0 | 0 | 0 | > 10 µM | > 10 µM | > 10 µM | > 10 µM | > 10 µM |
| CCCN1CCCC[C@H]1C(=O)Nc1c(C)cccc1C [ropivacaine] | 96.6% | 97.9% | 92.2% | 99% | 97.4% | 107% | 106% | 90.7% | 103% | 97.5% | 90.8% | 101% | 92.6% | 102% | 95.3% | 96.5% | 96.7% | 89.2% | 95.6% | 99.4% | 103% | 103% | 98.3% | 98.7% | 98.1% | 0 | 0 | 0 | 0 | 0 | > 10 µM | > 10 µM | > 10 µM | > 10 µM | > 10 µM |
| Nc1ncnc2c1ncn2C1CCCO1 (stereo not given) | 97.4% | 98.9% | 94.8% | 99.4% | 98.9% | 106% | 102% | 94.1% | 102% | 102% | 104% | 107% | 99.7% | 90.2% | 91.7% | 98.7% | 94.8% | 103% | 93.9% | 103% | 95.6% | 102% | 101% | 98.8% | 100% | 0 | 0 | 0 | 0 | 0 | > 10 µM | > 10 µM | > 10 µM | > 10 µM | > 10 µM |
| CC(C)(C)C(=O)OCC(=O)[C@H]1CC[C@H]2[C@@H]3CCC4=CC(=O)CC[C@]4(C)[C@H]3CC[C@]12C [desoxycorticosterone-pivalate] | 101% | 98.1% | 99.1% | 99.4% | 97.9% | 98.9% | 90.9% | 98.6% | 89.2% | 101% | 104% | 97% | 103% | 99.7% | 95.3% | 97% | 98.8% | 95.7% | 89% | 98.2% | 102% | 99% | 101% | 99.8% | 101% | 0 | 0 | 0 | 0 | 0 | > 10 µM | > 10 µM | > 10 µM | > 10 µM | > 10 µM |
| CC[N+](C)(CC)CC(=O)Nc1c(C)cccc1C [N-methyllidocaine-iodide] | 95.1% | 101% | 96.7% | 97.4% | 100% | 98.2% | 102% | 102% | 96.7% | 102% | 88% | 101% | 103% | 94.8% | 102% | 106% | 95.4% | 93.7% | 111% | 107% | 98.7% | 96.2% | 99.2% | 102% | 101% | 0 | 0 | 0 | 0 | 0 | > 10 µM | > 10 µM | > 10 µM | > 10 µM | > 10 µM |
| Cc1sc(C)c2c1CCC=C2c1c[nH]cn1 [TC-G-1000] | 101% | 96.8% | 95.6% | 102% | 97% | 102% | 97.3% | 102% | 97.2% | 102% | 106% | 93.3% | 100% | 99.2% | 94.6% | 111% | 108% | 111% | 97% | 104% | 103% | 96.4% | 100% | 99.9% | 96.7% | 0 | 0 | 0 | 0 | 0 | > 10 µM | > 10 µM | > 10 µM | > 10 µM | > 10 µM |
| CCN(CC)C(C)C(=O)c1ccccc1 (stereo not given) [amfepramone] | 100% | 95.3% | 98.1% | 95.2% | 98.6% | 109% | 85.5% | 93.6% | 93.7% | 103% | 117% | 95.9% | 103% | 102% | 128% | 106% | 102% | 100% | 96.6% | 101% | 92.3% | 102% | 106% | 106% | 86.8% | 0 | 0 | 0 | 0 | 0 | > 10 µM | > 10 µM | > 10 µM | > 10 µM | > 10 µM |
| CC(C)(C)NCC(O)c1cc(Br)no1 (stereo not given) [broxaterol] | 104% | 99.1% | 97.6% | 102% | 99.4% | 111% | 95.4% | 108% | 111% | 95.9% | 103% | 99.2% | 93% | 96.2% | 104% | 105% | 96.9% | 92.5% | 94.8% | 97.2% | 105% | 101% | 103% | 98.8% | 99.4% | 0 | 0 | 0 | 0 | 0 | > 10 µM | > 10 µM | > 10 µM | > 10 µM | > 10 µM |
| N=C(N)NCCC[C@H](NC(=O)c1sccc1NS(=O)(=O)c1cccc2nsnc12)C(=O)O | 98.3% | 102% | 96.3% | 105% | 98.4% | 92.7% | 110% | 106% | 117% | 110% | 96.9% | 104% | 98.5% | 101% | 105% | 105% | 101% | 95.8% | 105% | 103% | 105% | 103% | 101% | 98.4% | 97.1% | 0 | 0 | 0 | 0 | 0 | > 10 µM | > 10 µM | > 10 µM | > 10 µM | > 10 µM |
| Cc1onc(O)c1C[C@@H](N)C(=O)O (racemic) [AMPA-(RS)] | 97.1 ± 1.8% | 95.6 ± 1.3% | 98.2 ± 2.3% | 98.5 ± 3.6% | 102 ± 2.5% | 95.7 ± 6.4% | 98.5 ± 1.5% | 95.8 ± 5% | 99.1 ± 3.5% | 106 ± 12% | 99.7 ± 0.42% | 89.15 ± 0.071% | 98.2 ± 3.9% | 93.2 ± 3.2% | 93 ± 3.8% | 92.3 ± 9.6% | 102 ± 13% | 96.5 ± 5.2% | 101 ± 5.9% | 108 ± 5.2% | 99 ± 3.2% | 98.9 ± 1.1% | 93.8 ± 2.1% | 97.2 ± 1.3% | 104 ± 0.78% | 0 | 0 | 0 | 0 | 0 | > 10 µM | > 10 µM | > 10 µM | > 10 µM | > 10 µM |

Reference: the supplement of paper PMC13380429
